Experimental data taken from ChEMBL document CHEMBL3112414, “Synthesis of 3-tetrazolylmethyl-4H-chromen-4-ones via Ugi-azide and biological evaluation against Entamoeba histolytica, Giardia lamblia and Trichomona vaginalis” (Bioorg Med Chem, 2014).

Tests used:
Type in all cases: functional, organism-based
Trichomonas vaginalis = assay: Antiprotozoal activity against trophozoite stage of Trichomonas vaginalis GT3 assessed as growth inhibition
Entamoeba histolytica = assay: Antiprotozoal activity against trophozoite stage of Entamoeba histolytica HM-1:IMSS assessed as growth inhibition after 48 hrs
Giardia intestinalis = assay: Antiprotozoal activity against trophozoite stage of Giardia lamblia IMSS:8909:1 assessed as growth inhibition after 48 hrs; details: Giardia duodenalis, IMSS:8909:1, 48 h

O=c1c(C(Nc2ccccc2)c2nnnn2C2CCCCC2)coc2ccccc12 (stereo not given)
IC50 (Trichomonas vaginalis): 374 µM | IC50 (Entamoeba histolytica): 183 µM | IC50 (Giardia intestinalis): 286 µM

COc1ccc(NC(c2coc3ccccc3c2=O)c2nnnn2-c2c(C)cccc2C)cc1OC (stereo not given)
IC50 (Trichomonas vaginalis): 192 µM | IC50 (Entamoeba histolytica): 111 µM | IC50 (Giardia intestinalis): 240 µM

O=c1c(C(Nc2ccccc2[N+](=O)[O-])c2nnnn2C2CCCCC2)coc2ccccc12 (stereo not given)
IC50 (Trichomonas vaginalis): 188 µM | IC50 (Entamoeba histolytica): 124 µM | IC50 (Giardia intestinalis): 194 µM

CC(C)(C)n1nnnc1C(Nc1ccccc1)c1coc2ccccc2c1=O (stereo not given)
IC50 (Trichomonas vaginalis): 432 µM | IC50 (Entamoeba histolytica): 188 µM | IC50 (Giardia intestinalis): 316 µM

COc1cc(NC(c2coc3ccccc3c2=O)c2nnnn2C2CCCCC2)cc(OC)c1OC (stereo not given)
IC50 (Trichomonas vaginalis): 176 µM | IC50 (Entamoeba histolytica): 87.9 µM | IC50 (Giardia intestinalis): 171 µM

O=c1c(C(Nc2ccccc2Br)c2nnnn2C2CCCCC2)coc2ccccc12 (stereo not given)
IC50 (Trichomonas vaginalis): 195 µM | IC50 (Entamoeba histolytica): 114 µM | IC50 (Giardia intestinalis): 253 µM

O=c1c(C(Nc2ccc(I)cc2)c2nnnn2C2CCCCC2)coc2ccccc12 (stereo not given)
IC50 (Trichomonas vaginalis): 222 µM | IC50 (Entamoeba histolytica): 117 µM | IC50 (Giardia intestinalis): 226 µM

O=c1c(C(Nc2ccc([N+](=O)[O-])cc2)c2nnnn2C2CCCCC2)coc2ccccc12 (stereo not given)
IC50 (Trichomonas vaginalis): 205 µM | IC50 (Entamoeba histolytica): 116 µM | IC50 (Giardia intestinalis): 247 µM

O=c1c(C(Nc2ccc(Cl)cc2)c2nnnn2C2CCCCC2)coc2ccccc12 (stereo not given)
IC50 (Trichomonas vaginalis): 284 µM | IC50 (Entamoeba histolytica): 176 µM | IC50 (Giardia intestinalis): 218 µM

CC(C)(C)n1nnnc1C(Nc1ccccc1I)c1coc2ccccc2c1=O (stereo not given)
IC50 (Trichomonas vaginalis): 280 µM | IC50 (Entamoeba histolytica): 134 µM | IC50 (Giardia intestinalis): 207 µM

CC(C)(C)n1nnnc1C(Nc1ccc(Cl)cc1)c1coc2ccccc2c1=O (stereo not given)
IC50 (Trichomonas vaginalis): 371 µM | IC50 (Entamoeba histolytica): 161 µM | IC50 (Giardia intestinalis): 269 µM

Cc1ncc([N+](=O)[O-])n1CCO [METRONIDAZOLE]
IC50 (Entamoeba histolytica): 0.23 µg/mL | IC50 (Giardia intestinalis): 1.22 µg/mL

CC(C)(C)n1nnnc1C(Nc1ccc(I)cc1)c1coc2ccccc2c1=O (stereo not given)
IC50 (Trichomonas vaginalis): 246 µM | IC50 (Entamoeba histolytica): 142 µM | IC50 (Giardia intestinalis): 197 µM

CC(C)(C)n1nnnc1C(Nc1ccccc1Br)c1coc2ccccc2c1=O (stereo not given)
IC50 (Trichomonas vaginalis): 234 µM | IC50 (Entamoeba histolytica): 125 µM | IC50 (Giardia intestinalis): 242 µM

O=c1c(C(Nc2ccccc2I)c2nnnn2C2CCCCC2)coc2ccccc12 (stereo not given)
IC50 (Trichomonas vaginalis): 282 µM | IC50 (Entamoeba histolytica): 122 µM | IC50 (Giardia intestinalis): 198 µM

COc1ccc(-c2coc3cc(O)ccc3c2=O)cc1 [FORMONONETIN]
IC50 (Giardia intestinalis): 0.03 µg/mL
